Counter-ions that a name gives are not always drawn.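 Tested at 5 concentrations; 48 h exposure; 96-well plates; endpoints linearly interpolated, else capped at highest concentration. GI50 is the concentration that inhibits growth by half.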 The source made the active and inactive calls. No stated cut-off is given here; in the data, active = GI50 up to about 1.1 µM and inactive = higher.
Columns and labels:
Test in all cases: inhibition of tumour cell growth, NCI panel, 48 h
SN12C = test system: SN12C
HCT-15 = test system: HCT-15
OVCAR-8 = test system: OVCAR-8
TK-10 = test system: TK-10
HCT-116 = test system: HCT-116
MDA-MB-231 = test system: MDA-MB-231
U-251 = test system: U-251
M14 = test system: M14
DU-145 = test system: DU-145
PC-3 = test system: PC-3
HOP-92 = test system: HOP-92
OVCAR-5 = test system: OVCAR-5
RPMI-8226 = test system: RPMI-8226
SF-295 = test system: SF-295
COLO 205 = test system: COLO 205
KM12 = test system: KM12
RXF 393 = test system: RXF 393
UO-31 = test system: UO-31
HT-29 = test system: HT-29
EKVX = test system: EKVX

Structure (SMILES): CC(C)=CCc1c(O)c(CC2=C(O)C(CC=C(C)C)(C(=O)C(C)C)C(O)=C(C)C2=O)c(O)c(C(=O)C(C)C)c1O (stereo not drawn)
- GI50 (SN12C): 18.8 µM (inactive)
- GI50 (HCT-15): 11.7 µM
- GI50 (OVCAR-8): 12 µM (inactive)
- GI50 (TK-10): 13.2 µM (inactive)
- GI50 (HCT-116): 3.05 µM (inactive)
- GI50 (MDA-MB-231): 17 µM (inactive)
- GI50 (U-251): 12.4 µM (inactive)
- GI50 (M14): 11.4 µM (inactive)
- GI50 (DU-145): 18.9 µM (inactive)
- GI50 (PC-3): 5.66 µM (inactive)
- GI50 (HOP-92): 5.07 µM (inactive)
- GI50 (OVCAR-5): 11.9 µM (inactive)
- GI50 (RPMI-8226): 6.46 µM (inactive)
- GI50 (SF-295): 9.33 µM (inactive)
- GI50 (COLO 205): 13 µM (inactive)
- GI50 (KM12): 7.53 µM (inactive)
- GI50 (RXF 393): 12.1 µM (inactive)
- GI50 (UO-31): 7.59 µM (inactive)
- GI50 (HT-29): 3.88 µM (inactive)
- GI50 (EKVX): 17.7 µM (inactive)

Structure (SMILES): Cc1c(S(=O)(=O)c2ccccc2)c(N)n(CCN(C)C)c1C
- GI50 (SN12C): > 100 µM (inactive)
- GI50 (HCT-15): > 100 µM
- GI50 (OVCAR-8): > 100 µM (inactive)
- GI50 (TK-10): > 100 µM (inactive)
- GI50 (HCT-116): > 100 µM (inactive)
- GI50 (MDA-MB-231): > 100 µM (inactive)
- GI50 (U-251): > 100 µM (inactive)
- GI50 (M14): > 100 µM (inactive)
- GI50 (DU-145): > 100 µM (inactive)
- GI50 (PC-3): 86.9 µM (inactive)
- GI50 (HOP-92): > 100 µM (inactive)
- GI50 (OVCAR-5): > 100 µM (inactive)
- GI50 (RPMI-8226): > 100 µM (inactive)
- GI50 (SF-295): > 100 µM (inactive)
- GI50 (COLO 205): > 100 µM (inactive)
- GI50 (KM12): > 100 µM (inactive)
- GI50 (RXF 393): > 100 µM (inactive)
- GI50 (UO-31): > 100 µM (inactive)
- GI50 (HT-29): > 100 µM (inactive)
- GI50 (EKVX): > 100 µM (inactive)

Structure (SMILES): CS(=O)(=O)OCCCNCCCOS(C)(=O)=O
- GI50 (SN12C): 533 µM (inactive)
- GI50 (HCT-15): 1460 µM
- GI50 (OVCAR-8): 1650 µM (inactive)
- GI50 (TK-10): 2020 µM (inactive)
- GI50 (HCT-116): 1440 µM (inactive)
- GI50 (MDA-MB-231): 1860 µM (inactive)
- GI50 (U-251): 893 µM (inactive)
- GI50 (M14): 753 µM (inactive)
- GI50 (DU-145): 627 µM (inactive)
- GI50 (PC-3): 1270 µM (inactive)
- GI50 (HOP-92): 957 µM (inactive)
- GI50 (OVCAR-5): 2130 µM (inactive)
- GI50 (RPMI-8226): 1310 µM (inactive)
- GI50 (SF-295): 526 µM (inactive)
- GI50 (COLO 205): 1730 µM (inactive)
- GI50 (KM12): 2080 µM (inactive)
- GI50 (RXF 393): 1610 µM (inactive)
- GI50 (UO-31): 1990 µM (inactive)
- GI50 (HT-29): 1210 µM (inactive)
- GI50 (EKVX): 1810 µM (inactive)

Structure (SMILES): Cc1cc(C)c(/C=C2\C(=O)Nc3ccccc32)[nH]1 [SEMAXANIB]
- GI50 (SN12C): > 100 µM (inactive)
- GI50 (HCT-15): 34.8 µM
- GI50 (OVCAR-8): > 49.5 µM (inactive)
- GI50 (TK-10): > 100 µM (inactive)
- GI50 (HCT-116): 72.9 µM (inactive)
- GI50 (MDA-MB-231): > 62.1 µM (inactive)
- GI50 (U-251): > 100 µM (inactive)
- GI50 (M14): 69 µM (inactive)
- GI50 (DU-145): > 83 µM (inactive)
- GI50 (PC-3): > 100 µM (inactive)
- GI50 (HOP-92): 48.3 µM (inactive)
- GI50 (OVCAR-5): > 69 µM (inactive)
- GI50 (RPMI-8226): > 100 µM (inactive)
- GI50 (SF-295): > 100 µM (inactive)
- GI50 (COLO 205): > 100 µM (inactive)
- GI50 (KM12): 0.998 µM (active)
- GI50 (RXF 393): > 100 µM (inactive)
- GI50 (UO-31): 34.5 µM (inactive)
- GI50 (HT-29): 35.6 µM (inactive)
- GI50 (EKVX): 2.81 µM (inactive)

Structure (SMILES): CCCCOC(=O)CC(CC(=O)OCCCC)(OC(C)=O)C(=O)OCCCC [ACETYLTRIBUTYL CITRATE]
- GI50 (SN12C): > 164 µM (inactive)
- GI50 (HCT-15): > 177 µM
- GI50 (OVCAR-8): > 190 µM (inactive)
- GI50 (TK-10): > 200 µM (inactive)
- GI50 (HCT-116): 56.4 µM (inactive)
- GI50 (MDA-MB-231): > 200 µM (inactive)
- GI50 (U-251): > 200 µM (inactive)
- GI50 (M14): > 200 µM (inactive)
- GI50 (DU-145): > 106 µM (inactive)
- GI50 (PC-3): 132 µM (inactive)
- GI50 (HOP-92): 72.4 µM (inactive)
- GI50 (OVCAR-5): > 200 µM (inactive)
- GI50 (RPMI-8226): 16 µM (inactive)
- GI50 (SF-295): 91.2 µM (inactive)
- GI50 (COLO 205): 60.1 µM (inactive)
- GI50 (KM12): > 112 µM (inactive)
- GI50 (RXF 393): 1.1 µM (active)
- GI50 (UO-31): 39.6 µM (inactive)
- GI50 (HT-29): 60.8 µM (inactive)
- GI50 (EKVX): > 101 µM (inactive)

Structure (SMILES): CCOC(=O)c1sc2nc(SC)nc3c2c1NC(=O)CN3c1cccc(F)c1
- GI50 (SN12C): 17.2 µM (inactive)
- GI50 (OVCAR-8): 15.5 µM (inactive)
- GI50 (TK-10): 28.4 µM (inactive)
- GI50 (HCT-116): 18.2 µM (inactive)
- GI50 (MDA-MB-231): 16.1 µM (inactive)
- GI50 (U-251): 14.4 µM (inactive)
- GI50 (M14): 20.5 µM (inactive)
- GI50 (DU-145): 26.7 µM (inactive)
- GI50 (PC-3): 17.3 µM (inactive)
- GI50 (HOP-92): 22.5 µM (inactive)
- GI50 (OVCAR-5): 45 µM (inactive)
- GI50 (RPMI-8226): 9.12 µM (inactive)
- GI50 (SF-295): 16.3 µM (inactive)
- GI50 (COLO 205): 17.5 µM (inactive)
- GI50 (KM12): 80.5 µM (inactive)
- GI50 (RXF 393): 16.7 µM (inactive)
- GI50 (UO-31): 15.5 µM (inactive)
- GI50 (HT-29): 32.6 µM (inactive)
- GI50 (EKVX): 46 µM (inactive)

Structure (SMILES): CCOP(=O)(OCC)C(Nc1ccc(C(=O)O)cc1)c1ccc(C(Nc2ccc(C(=O)O)cc2)P(=O)(OCC)OCC)cc1 (stereo not drawn)
- GI50 (HCT-15): > 100 µM
- GI50 (OVCAR-8): > 100 µM (inactive)
- GI50 (TK-10): > 100 µM (inactive)
- GI50 (HCT-116): > 100 µM (inactive)
- GI50 (MDA-MB-231): > 100 µM (inactive)
- GI50 (U-251): > 100 µM (inactive)
- GI50 (M14): > 100 µM (inactive)
- GI50 (DU-145): > 100 µM (inactive)
- GI50 (PC-3): > 100 µM (inactive)
- GI50 (HOP-92): > 100 µM (inactive)
- GI50 (OVCAR-5): > 100 µM (inactive)
- GI50 (RPMI-8226): > 100 µM (inactive)
- GI50 (SF-295): > 100 µM (inactive)
- GI50 (COLO 205): > 100 µM (inactive)
- GI50 (KM12): > 100 µM (inactive)
- GI50 (RXF 393): > 100 µM (inactive)
- GI50 (UO-31): > 100 µM (inactive)
- GI50 (HT-29): > 100 µM (inactive)
- GI50 (EKVX): > 100 µM (inactive)

From ChEMBL document CHEMBL1201862, “PubChem BioAssay data set” (2004)
